From the supplement of paper PMC10307832

Experiments:
Test in all cases: relative viability (nuclei count vs DMSO), 5 days (fraction); higher = more cells survive
[1] = compound: C1=CC=C(C(=C1)C2=CC=C(C=C2)C3=CSC4=C3C(=C(C(=O)N4)C#N)O)O + COc1cccc2cc(-c3nc([C@H]4CC[C@H](C(=O)O)CC4)n4ncnc(N)c34)[nH]c12 [OSI-027] (partner 0.5 µM)
Outline: (§1)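 For relative viability, nuclei counts in treated wells were divided by those in vehicle wells. Lung cancer cell lines had been pin-tool dosed in 1536-well plates the day after seeding and cultured for 5 days, then fixed and stained in one step (final 0.05% Triton X-100, 1% formaldehyde, 1 ug/ml Hoechst) and imaged at 4×. Doses were one drug alone or a fixed anchor-drug dose plus five library-drug doses (not always all listed) in √10 steps, and values are duplicate-plate medians.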

[2] = compound: CC1=CN2C(=O)C=C(N=C2C(=C1)C(C)NC3=CC=CC=C3)N4CCOCC4 [TGX 221] + Cc1cc(Nc2cc(N3CCN(C)CC3)nc(Sc3ccc(NC(=O)C4CC4)cc3)n2)n[nH]1 [Tozasertib] (partner 0.1 µM)
Outline: as §1

[3] = compound: O=C(CCCCCCNC(=O)c1cnc(N(c2ccccc2)c2ccccc2)nc1)NO [Ricolinostat] + C[C@@H](Oc1cc(-c2cnn(C3CCNCC3)c2)cnc1N)c1c(Cl)ccc(F)c1Cl [Crizotinib] (partner 1 µM)
Outline: as §1

[4] = compound: O=C(CCCCCCNC(=O)c1cnc(N(c2ccccc2)c2ccccc2)nc1)NO [Ricolinostat] + O=C(CCCCCCC(=O)Nc1ccccc1)NO [Vorinostat] (partner 1 µM)
Outline: as §1

| Cell Line | relative viability ([1]; first compound 0.08 µM) | relative viability ([1]; first compound 0.253 µM) | relative viability ([1]; first compound 0.8 µM) | relative viability ([1]; first compound 2.53 µM) | relative viability ([1]; first compound 8 µM) | relative viability ([2]; first compound 0.08 µM) | relative viability ([2]; first compound 0.253 µM) | relative viability ([2]; first compound 0.8 µM) | relative viability ([2]; first compound 2.53 µM) | relative viability ([2]; first compound 8 µM) | relative viability ([3]; first compound 0.08 µM) | relative viability ([3]; first compound 0.253 µM) | relative viability ([3]; first compound 0.8 µM) | relative viability ([3]; first compound 2.53 µM) | relative viability ([4]; first compound 0.08 µM) | relative viability ([4]; first compound 0.253 µM) | relative viability ([4]; first compound 0.8 µM) | relative viability ([4]; first compound 2.53 µM) |
| --- | --- | --- | --- | --- | --- | --- | --- | --- | --- | --- | --- | --- | --- | --- | --- | --- | --- | --- |
| BEN | 0.305 | 0.303 | 0.497 | 0.313 | 0.286 | 0.51 | 0.505 | 0.489 | 0.473 | 0.496 | 0.745 | 0.789 | 0.903 | 0.68 | 0.517 | 0.543 | 0.592 | 0.498 |
| NCI-H1355 | 0.379 | 0.44 | 0.43 | 0.351 | 0.317 | 0.541 | 0.564 | 0.621 | 0.483 | 0.382 |  | 1.01 | 0.995 | 1.02 | 0.64 | 0.627 | 0.619 | 0.533 |
| NCI-H441 | 0.647 | 0.669 | 0.565 | 0.822 | 0.646 | 0.605 | 0.569 | 0.737 | 0.611 | 0.695 | 0.587 | 0.625 | 0.615 | 0.633 | 0.735 | 0.76 | 0.643 | 0.54 |
| EKVX | 0.777 | 0.775 | 0.71 | 0.724 | 0.509 | 0.381 | 0.343 | 0.329 | 0.317 | 0.272 |  | 0.762 | 0.958 | 1.01 | 0.617 | 0.724 | 0.62 | 0.74 |
| NCI-H358 | 0.787 | 0.724 | 0.758 | 0.779 | 0.736 | 0.097 | 0.0915 | 0.103 | 0.108 | 0.0944 | 0.581 | 0.453 | 0.421 | 0.31 | 0.599 | 0.633 | 0.482 | 0.34 |
